According to ChEMBL document CHEMBL4673260, “Pyridine alkaloids with activity in the central nervous system” (Bioorg Med Chem, 2020):

What was measured:
[1] = Neuroprotective activity in rat neuron assessed as glutamic acid induced intracellular calcium level at 0.5 ug/ml preincubated for 5 mins followed by glutamic acid stimulation and measured for 30 mins (reference value: 305%); type: functional; conditions: time 35 min
[2] = Neuroprotective activity in rat neuron assessed as NMDA-induced intracellular calcium level at 1 ug/ml preincubated for 5 mins followed by glutamic acid stimulation and measured for 20 mins (reference value: 235%); type: functional; conditions: time 25 min
[3] = Neuroprotective activity in rat neuron assessed as glutamic acid induced intracellular calcium level at 1 ug/ml preincubated for 5 mins followed by glutamic acid stimulation and measured for 30 mins (reference value: 305%); type: functional; conditions: time 35 min
[4] = Neuroprotective activity in rat neuron assessed as glutamic acid induced intracellular calcium level at 3 ug/ml preincubated for 5 mins followed by glutamic acid stimulation and measured for 30 mins (reference value: 305%); type: functional; conditions: time 35 min
[5] = molecular target: T1, Neuronal acetylcholine receptor subunit alpha-7 (Rattus norvegicus, UniProt Q05941); experiment: Agonist activity at rat alpha7 nAChR expressed in Xenopus laevis oocytes; type: cell-based, Oocyte
T1 sequence (Q05941 whole entry): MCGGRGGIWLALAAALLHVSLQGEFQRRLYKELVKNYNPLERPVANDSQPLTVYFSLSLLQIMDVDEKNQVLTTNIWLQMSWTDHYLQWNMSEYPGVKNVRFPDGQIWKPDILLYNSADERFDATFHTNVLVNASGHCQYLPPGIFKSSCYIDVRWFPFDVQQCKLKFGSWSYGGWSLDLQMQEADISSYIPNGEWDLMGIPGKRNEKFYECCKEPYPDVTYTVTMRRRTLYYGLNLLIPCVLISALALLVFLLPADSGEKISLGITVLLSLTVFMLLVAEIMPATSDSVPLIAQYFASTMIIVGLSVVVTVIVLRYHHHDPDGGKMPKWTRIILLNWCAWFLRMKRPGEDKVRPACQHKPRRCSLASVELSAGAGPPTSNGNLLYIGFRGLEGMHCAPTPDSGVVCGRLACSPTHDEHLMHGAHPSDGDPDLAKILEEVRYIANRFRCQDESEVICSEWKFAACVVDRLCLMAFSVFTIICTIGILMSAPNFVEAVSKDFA

[6] = molecular target: Neuronal acetylcholine receptor; alpha3/beta4 (Rattus norvegicus, UniProt P04757+P12392); experiment: Agonist activity at rat alpha3beta4 nAChR expressed in Xenopus laevis oocytes; type: cell-based, Oocyte
[7] = Displacement of [3H]-(-)-nicotine from rat cerebral cortex nAChR incubated for 60 mins by liquid scintillation spectrometry
[8] = molecular target: Neuronal acetylcholine receptor subunit alpha-7 (Homo sapiens, UniProt P36544)
Description: Displacement of [125I]alpha-bungarotoxin from human alpha7 nAChR expressed in K28 cell membrane

[9] = species on record: Mus musculus; experiment: animal or person
Description: Antinociceptive activity against mecamylamine-treated mouse

[10] = species on record: Mus musculus; experiment: animal or person; remark: listed apart in the source
Description: Antinociceptive activity in naloxone treated mouse assessed as induction of Straub-tail response

[11] = species on record: Mus musculus; experiment: animal or person; remark: listed apart in the source
Description: Antinociceptive activity in mouse

[12] = Toxicity in iv dosed rat; type: organism-based; conditions: in vivo
[13] = molecular target: GABA-A receptor alpha-1/beta-1 (Bos taurus, UniProt P08219+P08220)
Chain of GABA-A receptor alpha-1/beta-1 (P08220 whole entry): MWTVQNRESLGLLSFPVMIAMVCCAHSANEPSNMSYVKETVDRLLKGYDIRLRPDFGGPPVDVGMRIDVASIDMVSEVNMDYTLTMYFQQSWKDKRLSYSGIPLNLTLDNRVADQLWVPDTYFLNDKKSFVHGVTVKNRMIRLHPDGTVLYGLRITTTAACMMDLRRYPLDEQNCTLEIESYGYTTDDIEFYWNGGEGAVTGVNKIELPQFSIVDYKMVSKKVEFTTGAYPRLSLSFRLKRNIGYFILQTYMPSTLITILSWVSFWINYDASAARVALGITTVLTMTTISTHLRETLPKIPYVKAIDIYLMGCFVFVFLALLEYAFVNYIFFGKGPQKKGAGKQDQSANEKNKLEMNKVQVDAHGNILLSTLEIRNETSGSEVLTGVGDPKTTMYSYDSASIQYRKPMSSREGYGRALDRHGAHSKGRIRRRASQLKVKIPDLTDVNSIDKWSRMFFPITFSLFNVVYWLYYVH
Chain of GABA-A receptor alpha-1/beta-1 (P08219 whole entry): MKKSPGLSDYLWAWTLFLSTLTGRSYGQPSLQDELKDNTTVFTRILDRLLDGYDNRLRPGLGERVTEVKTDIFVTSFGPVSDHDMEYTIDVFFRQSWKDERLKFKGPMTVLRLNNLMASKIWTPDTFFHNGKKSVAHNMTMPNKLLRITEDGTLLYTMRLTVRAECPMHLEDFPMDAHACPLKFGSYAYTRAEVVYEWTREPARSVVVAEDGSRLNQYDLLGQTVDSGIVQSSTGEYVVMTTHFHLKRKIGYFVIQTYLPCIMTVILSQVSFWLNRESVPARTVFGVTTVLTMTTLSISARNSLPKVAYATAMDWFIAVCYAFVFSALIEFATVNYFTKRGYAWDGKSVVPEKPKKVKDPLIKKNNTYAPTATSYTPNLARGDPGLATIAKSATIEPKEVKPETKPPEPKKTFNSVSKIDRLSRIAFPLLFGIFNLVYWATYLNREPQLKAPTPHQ
Description: Competitive inhibition of bovine GABAA alpha1beta1 expressed in Xenopus laevis oocytes

[14] = molecular target: Acetylcholinesterase (Bos taurus, UniProt P23795)
[15] = molecular target: T2, Neuronal acetylcholine receptor; alpha4/beta2 (Rattus norvegicus, UniProt P09483+P12390); experiment: Binding affinity to rat alpha4beta2 nAChR; type: protein-complex assay
T2 sequence (P09483 whole entry): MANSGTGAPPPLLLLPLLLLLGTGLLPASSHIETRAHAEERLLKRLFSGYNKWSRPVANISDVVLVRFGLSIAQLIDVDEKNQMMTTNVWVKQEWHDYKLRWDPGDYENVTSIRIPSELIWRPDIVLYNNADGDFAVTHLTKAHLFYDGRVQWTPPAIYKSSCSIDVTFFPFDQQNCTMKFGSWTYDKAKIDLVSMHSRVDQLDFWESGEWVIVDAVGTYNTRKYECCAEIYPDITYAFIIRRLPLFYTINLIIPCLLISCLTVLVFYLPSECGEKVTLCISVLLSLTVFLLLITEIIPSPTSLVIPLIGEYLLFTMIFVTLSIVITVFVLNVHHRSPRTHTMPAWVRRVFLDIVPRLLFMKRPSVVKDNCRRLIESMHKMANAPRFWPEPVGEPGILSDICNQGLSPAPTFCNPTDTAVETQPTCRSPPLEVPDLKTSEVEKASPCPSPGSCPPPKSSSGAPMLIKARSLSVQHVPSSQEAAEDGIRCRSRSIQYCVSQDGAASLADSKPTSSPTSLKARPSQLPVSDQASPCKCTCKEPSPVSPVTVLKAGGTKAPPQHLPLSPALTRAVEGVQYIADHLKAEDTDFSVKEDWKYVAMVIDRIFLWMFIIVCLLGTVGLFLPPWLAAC
T2 sequence (P12390 whole entry): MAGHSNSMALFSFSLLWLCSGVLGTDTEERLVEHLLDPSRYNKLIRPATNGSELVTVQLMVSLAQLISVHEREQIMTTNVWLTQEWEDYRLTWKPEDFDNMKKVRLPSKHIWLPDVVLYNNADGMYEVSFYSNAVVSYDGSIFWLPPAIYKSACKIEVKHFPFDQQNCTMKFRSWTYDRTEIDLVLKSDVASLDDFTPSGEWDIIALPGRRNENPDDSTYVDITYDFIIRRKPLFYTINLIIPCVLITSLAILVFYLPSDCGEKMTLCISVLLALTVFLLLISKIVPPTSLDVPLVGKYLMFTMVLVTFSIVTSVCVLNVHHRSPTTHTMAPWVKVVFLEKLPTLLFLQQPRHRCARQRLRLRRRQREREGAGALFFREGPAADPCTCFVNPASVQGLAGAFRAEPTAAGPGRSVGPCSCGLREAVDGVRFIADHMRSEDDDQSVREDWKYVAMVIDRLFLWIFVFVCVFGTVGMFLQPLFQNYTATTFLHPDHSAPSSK

[16] = molecular target: T2, Neuronal acetylcholine receptor; alpha4/beta2
Description: Agonist activity at rat alpha4beta2 nAChR

[17] = molecular target: T1, Neuronal acetylcholine receptor subunit alpha-7
[18] = molecular target: T3, Neuronal acetylcholine receptor; alpha4/beta2 (Rattus norvegicus) (UniProt P09483+P12390); experiment: Potency index, ratio of nicotine EC50 to test compound EC50 for agonist activity at rat alpha4beta2 nAChR; type: protein-complex assay
[19] = molecular target: Neuronal acetylcholine receptor subunit alpha-7 (Rattus norvegicus) (UniProt Q05941); experiment: Potency index, ratio of nicotine Ki to test compound Ki for rat alpha7 nAChR
Chain of Neuronal acetylcholine receptor subunit alpha-7 (Rattus norvegicus) (Q05941 whole entry): as the sequence (Q05941 whole entry) above

[20] = molecular target: T1, Neuronal acetylcholine receptor subunit alpha-7; remark: listed apart in the source
Description: Binding affinity to rat alpha7 nAChR

[21] = molecular target: Neuronal acetylcholine receptor subunit alpha-7 (Rattus norvegicus) (UniProt Q05941); experiment: Potency index, ratio of nicotine EC50 to test compound EC50 for rat alpha7 nAChR
[22] = test system: Mus musculus; experiment: Anti-analeptic activity in mouse assessed as reduction in corazol-induced convulsion at 75 mg/kg relative to control; type: functional; set-up: scale not given: the % may be the effect or the level left
[23] = test system: Mus musculus; experiment: Anti-analeptic activity in mouse assessed as reduction in corazol-induced convulsion at 25 mg/kg relative to control; type: functional; set-up: scale not given: the % may be the effect or the level left
[24] = Protection against caffeine-induced mortality in mouse at 250 mg/kg; type: ADME, organism-based; conditions: in vivo
[25] = test system: Mus musculus; experiment: Anti-analeptic activity in mouse assessed as reduction in lethality at 125 to 150 mg/kg coadministered with camphor relative to control; type: functional; set-up: scale not given: the % may be the effect or the level left; conditions: dose 125-150 mg/kg
[26] = Protection against strychnine-induced mortality in mouse at 100 mg/kg; type: ADME, organism-based; conditions: in vivo
[27] = test system: Mus musculus; experiment: Anti-analeptic activity in mouse assessed as reduction in convulsion at 125 to 150 mg/kg coadministered with camphor relative to control; type: functional; set-up: scale not given: the % may be the effect or the level left; conditions: dose 125-150 mg/kg
[28] = molecular target: Cholecystokinin receptor type A (Homo sapiens, UniProt P32238); experiment: Displacement of [3H]nicotine from cholecystokinin receptor type A (unknown origin)
[29] = Acute toxicity in po dosed dog administered as repeated dose for 28 days; type: organism-based, Canis lupus familiaris; conditions: in vivo, time 28 day
[30] = In vivo agonist activity at nAChR in rat assessed as acetylcholine level in cortex at 3.6 micromol/kg, sc by microdialysis relative to control; type: functional; conditions: dose 3.6 µmol/kg
[31] = molecular target: D(3) dopamine receptor (Homo sapiens, UniProt P35462); experiment: Displacement of [3H]nicotine from dopamine D3 receptor (unknown origin)
Chain of D(3) dopamine receptor (P35462 whole entry): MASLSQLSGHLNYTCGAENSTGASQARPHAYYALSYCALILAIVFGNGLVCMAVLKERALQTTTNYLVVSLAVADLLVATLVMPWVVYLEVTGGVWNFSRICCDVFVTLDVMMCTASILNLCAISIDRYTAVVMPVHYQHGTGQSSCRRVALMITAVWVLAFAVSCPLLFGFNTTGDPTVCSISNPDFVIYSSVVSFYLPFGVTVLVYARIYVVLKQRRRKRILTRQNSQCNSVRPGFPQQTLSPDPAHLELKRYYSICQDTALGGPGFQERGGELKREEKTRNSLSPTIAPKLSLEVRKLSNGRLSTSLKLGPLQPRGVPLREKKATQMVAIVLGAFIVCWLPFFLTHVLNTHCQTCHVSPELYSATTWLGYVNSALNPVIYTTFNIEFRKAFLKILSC

[32] = molecular target: Thromboxane A2 receptor (Homo sapiens, UniProt P21731); experiment: Displacement of [3H]nicotine from Thromboxane A2 (unknown origin)
[33] = molecular target: Neuropeptide Y receptor type 2 (Homo sapiens, UniProt P49146); experiment: Displacement of [3H]nicotine from NPY2R (unknown origin)
[34] = molecular target: 5-hydroxytryptamine receptor 2A (Homo sapiens, UniProt P28223); experiment: Displacement of […] from 5-hydroxytryptamine receptor 2A (unknown origin)
[35] = molecular target: T2, Neuronal acetylcholine receptor; alpha4/beta2; experiment: Inhbition of [3H] nicotine binding to rat brain alpha4beta2 nAChR
[36] = molecular target: Muscarinic acetylcholine receptor M3 (Homo sapiens, UniProt P20309); experiment: Displacement of [3H]nicotine from muscarinic M3 receptor (unknown origin)
[37] = molecular target: 5-hydroxytryptamine receptor 3A (Homo sapiens, UniProt P46098); experiment: Displacement of […] from 5-hydroxytryptamine receptor 3A (unknown origin)
Chain of 5-hydroxytryptamine receptor 3A (P46098 whole entry): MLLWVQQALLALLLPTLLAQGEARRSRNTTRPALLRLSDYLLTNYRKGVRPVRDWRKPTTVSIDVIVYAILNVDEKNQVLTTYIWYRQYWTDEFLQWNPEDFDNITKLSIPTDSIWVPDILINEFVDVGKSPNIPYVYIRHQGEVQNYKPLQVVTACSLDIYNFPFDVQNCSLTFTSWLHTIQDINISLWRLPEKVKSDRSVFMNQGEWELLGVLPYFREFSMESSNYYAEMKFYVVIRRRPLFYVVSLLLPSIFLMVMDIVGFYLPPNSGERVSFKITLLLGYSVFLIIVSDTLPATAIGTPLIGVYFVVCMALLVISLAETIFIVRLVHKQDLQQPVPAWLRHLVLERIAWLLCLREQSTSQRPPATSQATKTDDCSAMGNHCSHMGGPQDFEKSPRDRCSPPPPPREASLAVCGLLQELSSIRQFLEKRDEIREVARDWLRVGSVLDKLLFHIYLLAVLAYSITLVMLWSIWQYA

[38] = molecular target: Histamine H3 receptor (Homo sapiens, UniProt Q9Y5N1); experiment: Displacement of [3H]nicotine from Histamine H3 receptor (unknown origin)
Chain of Histamine H3 receptor (Q9Y5N1 whole entry): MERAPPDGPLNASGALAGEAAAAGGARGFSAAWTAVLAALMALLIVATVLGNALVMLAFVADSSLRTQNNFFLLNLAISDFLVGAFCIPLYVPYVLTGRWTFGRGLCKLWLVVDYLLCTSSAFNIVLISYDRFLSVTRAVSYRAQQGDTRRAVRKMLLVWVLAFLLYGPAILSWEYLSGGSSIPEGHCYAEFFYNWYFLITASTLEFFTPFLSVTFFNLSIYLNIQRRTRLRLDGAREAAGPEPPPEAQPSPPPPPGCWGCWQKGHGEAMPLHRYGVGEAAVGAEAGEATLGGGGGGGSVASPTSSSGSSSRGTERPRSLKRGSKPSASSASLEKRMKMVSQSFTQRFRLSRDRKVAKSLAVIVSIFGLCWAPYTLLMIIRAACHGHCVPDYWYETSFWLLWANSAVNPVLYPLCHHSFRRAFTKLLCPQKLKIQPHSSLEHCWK

[39] = species on record: Rattus norvegicus; experiment: Agonist activity at nAChR in rat striatal synaptosomes assessed as [3H]dopamine release relative to tetramethylammonium; type: subcellular; conditions: Striatum, filed as agonist
[40] = Acute toxicity in po dosed mouse administered as repeated dose for 28 days; type: organism-based; conditions: in vivo, time 28 day
[41] = Acute toxicity in po dosed mouse administered as single dose for 28 days; type: organism-based; conditions: in vivo, time 28 day
[42] = Displacement of [3H]nicotine from Leukotriene B4 receptor (unknown origin); set-up: species or system Homo sapiens
[43] = Displacement of [3H]nicotine from neurokinin receptor (unknown origin); set-up: species or system Homo sapiens
[44] = molecular target: Glutamate [NMDA] receptor; experiment: Displacement of [3H]nicotine from NMDA receptor (unknown origin); type: protein-complex assay, Homo sapiens
[45] = molecular target: Muscarinic acetylcholine receptor M2 (Homo sapiens, UniProt P08172); experiment: Displacement of [3H]nicotine from muscarinic M2 receptor (unknown origin)
Chain of Muscarinic acetylcholine receptor M2 (P08172 whole entry): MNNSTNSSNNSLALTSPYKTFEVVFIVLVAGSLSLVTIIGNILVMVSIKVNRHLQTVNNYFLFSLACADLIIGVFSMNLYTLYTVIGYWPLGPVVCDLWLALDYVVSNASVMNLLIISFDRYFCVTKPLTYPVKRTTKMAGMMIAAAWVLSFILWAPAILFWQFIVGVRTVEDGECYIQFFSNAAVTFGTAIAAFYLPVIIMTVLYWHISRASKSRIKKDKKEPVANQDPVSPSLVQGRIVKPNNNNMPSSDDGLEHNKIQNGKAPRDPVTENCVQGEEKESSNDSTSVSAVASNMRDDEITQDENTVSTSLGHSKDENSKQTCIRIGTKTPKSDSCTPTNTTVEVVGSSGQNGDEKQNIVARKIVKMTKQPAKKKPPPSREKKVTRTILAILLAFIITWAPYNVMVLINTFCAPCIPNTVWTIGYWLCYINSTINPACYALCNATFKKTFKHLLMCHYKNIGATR

[46] = Displacement of [3H]nicotine from sodium channel site2 (unknown origin); set-up: species or system Homo sapiens
[47] = molecular target: B2 bradykinin receptor (Homo sapiens, UniProt P30411); experiment: Displacement of […] from B2 bradykinin receptor (unknown origin)
Chain of B2 bradykinin receptor (P30411 whole entry): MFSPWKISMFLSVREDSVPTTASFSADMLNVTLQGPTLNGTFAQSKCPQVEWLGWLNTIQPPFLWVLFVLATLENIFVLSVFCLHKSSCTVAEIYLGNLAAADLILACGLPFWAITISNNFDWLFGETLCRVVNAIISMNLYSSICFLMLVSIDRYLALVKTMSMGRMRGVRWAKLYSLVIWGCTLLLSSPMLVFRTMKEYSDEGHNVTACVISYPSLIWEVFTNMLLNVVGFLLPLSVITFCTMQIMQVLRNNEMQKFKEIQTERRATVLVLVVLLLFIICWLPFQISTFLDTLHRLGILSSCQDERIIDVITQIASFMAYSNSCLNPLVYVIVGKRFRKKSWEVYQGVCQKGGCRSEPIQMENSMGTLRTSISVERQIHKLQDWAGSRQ

[48] = test system: Rattus norvegicus; experiment: Memory enhancing effect in rat model of mecamylamine-induced amnesia assessed as decrease in latency to find platform at 0.3 to 3 micromol/kg, po by water-navigation test relative to control; type: functional; set-up: scale not given: the % may be the effect or the level left; conditions: dose 0.3-3 µmol/kg; at 0.3 to 3 µmol/kg
[49] = In vivo agonist activity at nAChR in rat assessed as serotonin level in cortex at 3.6 micromol/kg, sc by microdialysis relative to control; type: functional; conditions: dose 3.6 µmol/kg
[50] = Displacement of [3H]nicotine from dopamine D4.2 receptor (unknown origin); set-up: species or system Homo sapiens
[51] = molecular target: T3, Neuronal acetylcholine receptor; alpha4/beta2 (Rattus norvegicus); experiment: Agonist activity at rat alpha4beta2 expressed in Xenopus oocytes assessed as peak activation at 100 uM relative to control; type: cell-based; conditions: Oocyte, filed as agonist
[52] = molecular target: 5-hydroxytryptamine receptor 1A (Homo sapiens, UniProt P08908); experiment: Displacement of […] from 5-hydroxytryptamine receptor 1A (unknown origin)
[53] = molecular target: Endothelin receptor type B (Homo sapiens, UniProt P24530); experiment: Displacement of [3H]nicotine from Endothelin receptor type B (unknown origin)
[54] = Acute toxicity in po dosed dog administered as single dose for 28 days; type: organism-based, Canis lupus familiaris; conditions: in vivo, time 28 day
[55] = molecular target: Muscarinic acetylcholine receptor M1 (Homo sapiens, UniProt P11229); experiment: Displacement of [3H]nicotine from muscarinic M1 receptor (unknown origin)
[56] = Displacement of [3H]nicotine from angiotensin II receptor (unknown origin); set-up: species or system Homo sapiens
[57] = test system: Rattus norvegicus; experiment: Memory enhancing effect in Sprague-Dawley rat model of ibotenic-acid-induced impairment of forebrain cholinergic projection system assessed as improvement in reference memory at 0.36 to 1.4 micromol/kg, po by radial arm maze test relative to control; type: functional; conditions: dose 0.36-1.4 µmol/kg
[58] = molecular target: Gastrin/cholecystokinin type B receptor (Homo sapiens, UniProt P32239); experiment: Displacement of [3H]nicotine from cholecystokinin receptor type B (unknown origin)
[59] = molecular target: Endothelin-1 receptor (Homo sapiens, UniProt P25101); experiment: Displacement of [3H]nicotine from Endothelin receptor type A (unknown origin)
[60] = molecular target: T2, Neuronal acetylcholine receptor; alpha4/beta2; remark: listed apart in the source
Description: Agonist activity at alpha4beta2 nAChR in rat thalamic synaptosomes assessed as increase in 86Rb efflux

[61] = In vivo agonist activity at nAChR in rat assessed as dopamine level in cortex at 3.6 micromol/kg, sc by microdialysis relative to control; type: functional; conditions: dose 3.6 µmol/kg
[62] = molecular target: T3, Neuronal acetylcholine receptor; alpha4/beta2 (Rattus norvegicus); experiment: Agonist activity at alpha4beta2 nAChR in rat thalamic synaptosomes assessed as 86Rb efflux relative to tetramethylammonium; type: subcellular; conditions: Thalamus, filed as agonist
[63] = In vivo agonist activity at nAChR in rat assessed as nor-epinephrine level in cortex at 3.6 micromol/kg, sc by microdialysis relative to control; type: functional; conditions: dose 3.6 µmol/kg
[64] = test system: Rattus norvegicus; experiment: Cognitive enhancing effect in Wistar rat assessed as reversal of scopolamine-induced amnesia at 0.6 micromol/kg, sc by passive-avoidance test relative to control; type: functional; conditions: dose 0.6 µmol/kg
[65] = Antagonist activity at 5HT1 in Wistar rat stomach fundus strip assessed as inhibition of 5-hydroxy-tryptamine evoked contraction preincubated for 20 mins followed by 5-HT addition; type: tissue-based

O=C([O-])c1ccc[n+](CCOC(=O)c2ccc[nH]2)c1
Activity [1]: 58.1% | Activity [2]: 63.5% | Activity [3]: 65.4% | Activity [4]: 25.1%

c1cncc([C@@H]2CCCN2)c1 [NORNICOTINE]
EC50 [5]: 17.4 µM | EC50 [6]: 614 µM

Clc1ccc(C2CC3CCC2N3)cn1 (stereo in doubt; (+)) [EPIBATIDINE]
IC50 [7]: 0.0001 µM | Ki [8]: 0.0022 µM | ED50 [9]: 0.289 mg/kg | ED50 [10]: 0.02 mg/kg | ED50 [11]: 0.0136 mg/kg | LD50 [12]: < 0.125 µmol/kg

C[n+]1cccc(C(=O)[O-])c1 [TRIGONELLINE]
Ki [13]: 0.013 µM | IC50 [14]: 233 µM

c1cncc(C2=NCCCC2)c1 [ANABASEINE]
Ki [15]: 0.032 µM | EC50 [16]: 4.2 µM | EC50 [17]: 6.7 µM | Ratio EC50 [18]: 3 | Ratio Ki [19]: 7 | Ki [20]: 0.058 µM | Ratio EC50 [21]: 7

COc1c2c(nc3occc13)[C@@](CC=C(C)C)(OC)[C@H](O)CC2
Activity [22]: 100% | Activity [23]: 50% | Activity [24]: 80% | Activity [25]: 100% | Activity [26]: 100% | Activity [27]: 50%

CN(C)CC/C=C/c1cccnc1
IC50 [28]: > 10 µM | LD50 at 672 h [29]: 1.8e+06 µmol/kg | Activity [30]: 190% | IC50 [31]: > 10 µM | IC50 [32]: > 10 µM | IC50 [33]: > 10 µM | IC50 [34]: > 10 µM | Ki [35]: 0.026 µM | IC50 [36]: > 10 µM | IC50 [37]: > 10 µM | IC50 [38]: > 10 µM | Emax [39]: 81% | LD50 at 672 h [40]: 1.8e+06 µmol/kg | LD50 at 672 h [41]: 1.8e+06 µmol/kg | IC50 [42]: > 10 µM | IC50 [43]: > 10 µM | IC50 [44]: > 10 µM | IC50 [45]: > 10 µM | IC50 [46]: > 10 µM | IC50 [47]: > 10 µM | Activity [48]: 40% | Activity [49]: 170% | IC50 [50]: > 10 µM | Activity [51]: 492% | IC50 [52]: > 10 µM | IC50 [53]: > 10 µM | LD50 at 672 h [54]: 1.8e+06 µmol/kg | IC50 [55]: > 10 µM | IC50 [56]: > 10 µM | fold change (FC) [57]: 2 | IC50 [58]: > 10 µM | IC50 [59]: > 10 µM | EC50 [60]: 0.732 µM | Activity [61]: 150% | Emax [62]: 79% | Activity [63]: 150% | Activity [64]: 50%

O=C([O-])c1ccc[n+](CCOC(=O)c2cc(Br)c[nH]2)c1
IC50 [65]: 80 µM
